Reference: ChEMBL document CHEMBL3046917, “Antimicrobial evaluation of 4-methylsulfanyl benzylidene/3-hydroxy benzylidene hydrazides and QSAR studies” (2012)
≈ marks a conversion by molar mass, not a printed value.

Legend:
Type in all cases: functional
[1] = system: Bacillus subtilis; test: Bacteriostatic activity against Bacillus subtilis MTCC 2063 after 24 hr by tube dilution method
[2] = system: Bacillus subtilis; test: Bactericidal activity against Bacillus subtilis MTCC 2063
[3] = system: Aspergillus niger; test: Fungicidal activity against Aspergillus niger MTCC 8189
[4] = system: Candida albicans; test: Fungicidal activity against Candida albicans MTCC 227
[5] = system: Staphylococcus aureus; test: Bactericidal activity against Staphylococcus aureus MTCC 2901
[6] = system: Escherichia coli; test: Ratio of MBC to MIC for Escherichia coli MTCC 1652
[7] = system: Escherichia coli; test: Bactericidal activity against Escherichia coli MTCC 1652
[8] = system: Staphylococcus aureus; test: Bacteriostatic activity against Staphylococcus aureus MTCC 2901 after 24 hr by tube dilution method
[9] = system: Aspergillus niger; test: Fungistatic activity against Aspergillus niger MTCC 8189 after 7 days by tube dilution method
[10] = system: Escherichia coli; test: Bacteriostatic activity against Escherichia coli MTCC 1652 after 24 hr by tube dilution method
[11] = system: Aspergillus niger; test: Ratio of MFC to MIC for Aspergillus niger MTCC 8189
[12] = system: Staphylococcus aureus; test: Ratio of MBC to MIC for Staphylococcus aureus MTCC 2901
[13] = system: Candida albicans; test: Fungistatic activity against Candida albicans MTCC 227 after 48 hr by tube dilution method
[14] = system: Candida albicans; test: Ratio of MFC to MIC for Candida albicans MTCC 227
[15] = system: Bacillus subtilis; test: Ratio of MBC to MIC for Bacillus subtilis MTCC 2063

CCCCCCCCCCCCCC(=O)N/N=C/c1ccc(SC)cc1
-logMIC [1]: 2.08
MBC [2]: 33 µM (≈ 12.4 µg/mL)
MFC [3]: > 132 µM
MFC [4]: > 132 µM
MBC [5]: > 132 µM
Ratio [6]: 3
MBC [7]: > 132 µM
-logMIC [8]: 0.58
-logMIC [9]: 1.7
-logMIC [10]: 1.48
Ratio [11]: 3
Ratio [12]: 3
-logMIC [13]: 0.58
Ratio [14]: 3
Ratio [15]: 3

CSc1ccc(/C=N/NC(=O)c2ccc(C)cc2)cc1
-logMIC [1]: 1.96
MBC [2]: 44 µM (≈ 12.5 µg/mL)
MFC [3]: 88 µM (≈ 25 µg/mL)
MFC [4]: 88 µM (≈ 25 µg/mL)
MBC [5]: > 176 µM
Ratio [6]: 3
MBC [7]: 88 µM (≈ 25 µg/mL)
-logMIC [8]: 1.66
-logMIC [9]: 1.66
-logMIC [10]: 1.96
Ratio [11]: 3
Ratio [12]: 3
-logMIC [13]: 1.96
Ratio [14]: 3
Ratio [15]: 3

COc1ccc(C(=O)N/N=C/c2cccc(O)c2)cc1OC
-logMIC [1]: 1.38
MBC [2]: > 166 µM
MFC [3]: 41 µM (≈ 12.3 µg/mL)
MFC [4]: 83 µM (≈ 24.9 µg/mL)
MBC [5]: 83 µM (≈ 24.9 µg/mL)
Ratio [6]: 3
MBC [7]: > 166 µM
-logMIC [8]: 1.98
-logMIC [9]: 1.98
-logMIC [10]: 1.38
Ratio [11]: 3
Ratio [12]: 3
-logMIC [13]: 1.98
Ratio [14]: 3
Ratio [15]: 3

CSc1ccc(/C=N/NC(=O)/C=C/c2ccccc2)cc1
-logMIC [1]: 1.68
MBC [2]: > 168 µM
MFC [3]: > 168 µM
MFC [4]: 84 µM (≈ 24.9 µg/mL)
MBC [5]: > 168 µM
Ratio [6]: 3
MBC [7]: 168 µM (≈ 49.8 µg/mL)
-logMIC [8]: 1.68
-logMIC [9]: 1.37
-logMIC [10]: 1.68
Ratio [11]: 3
Ratio [12]: 3
-logMIC [13]: 1.37
Ratio [14]: 3
Ratio [15]: 3

OC(Cn1cncn1)(Cn1cncn1)c1ccc(F)cc1F [FLUCONAZOLE]
MFC [3]: 40 µM (≈ 12.3 µg/mL)
MFC [4]: 40 µM (≈ 12.3 µg/mL)
-logMIC [9]: 2.64
-logMIC [13]: 2.64

CCCCCCCCCCCCCCCCCC(=O)N/N=C/c1cccc(O)c1
-logMIC [1]: 1.51
MBC [2]: 124 µM (≈ 49.9 µg/mL)
MFC [3]: > 124 µM
MFC [4]: > 124 µM
MBC [5]: > 124 µM
Ratio [6]: 3
MBC [7]: > 124 µM
-logMIC [8]: 1.1
-logMIC [9]: 1.51
-logMIC [10]: 1.3
Ratio [11]: 3
Ratio [12]: 3
-logMIC [13]: 0.6
Ratio [14]: 3
Ratio [15]: 3

CSc1ccc(/C=N/NC(=O)c2cccc(C)c2)cc1
-logMIC [1]: 1.06
MBC [2]: > 176 µM
MFC [3]: 88 µM (≈ 25 µg/mL)
MFC [4]: 176 µM (≈ 50.1 µg/mL)
MBC [5]: > 176 µM
Ratio [6]: 3
MBC [7]: 176 µM (≈ 50.1 µg/mL)
-logMIC [8]: 1.55
-logMIC [9]: 1.7
-logMIC [10]: 1.66
Ratio [11]: 3
Ratio [12]: 3
-logMIC [13]: 1.67
Ratio [14]: 3
Ratio [15]: 3

CCCCCCCCCCCCCCCC(=O)N/N=C/c1cccc(O)c1
-logMIC [1]: 1.78
MBC [2]: 133 µM (≈ 49.8 µg/mL)
MFC [3]: > 133 µM
MFC [4]: > 133 µM
MBC [5]: > 133 µM
Ratio [6]: 3
MBC [7]: > 133 µM
-logMIC [8]: 0.99
-logMIC [9]: 1.2
-logMIC [10]: 1.13
Ratio [11]: 3
Ratio [12]: 3
-logMIC [13]: 0.57
Ratio [14]: 3
Ratio [15]: 3

CCCCCCCCCCCCCC(=O)N/N=C/c1cccc(O)c1
-logMIC [1]: 2.04
MBC [2]: 144 µM (≈ 49.9 µg/mL)
MFC [3]: > 144 µM
MFC [4]: > 144 µM
MBC [5]: > 144 µM
Ratio [6]: 3
MBC [7]: > 144 µM
-logMIC [8]: 0.94
-logMIC [9]: 1.2
-logMIC [10]: 0.94
Ratio [11]: 3
Ratio [12]: 3
-logMIC [13]: 0.54
Ratio [14]: 3
Ratio [15]: 3

CCCCCCCCCCCCCCCCCC(=O)N/N=C/c1ccc(SC)cc1
-logMIC [1]: 0.64
MBC [2]: > 115 µM
MFC [3]: 115 µM (≈ 49.8 µg/mL)
MFC [4]: > 115 µM
MBC [5]: > 115 µM
Ratio [6]: 3
MBC [7]: 28 µM (≈ 12.1 µg/mL)
-logMIC [8]: 0.94
-logMIC [9]: 0.7
-logMIC [10]: 1.65
Ratio [11]: 3
Ratio [12]: 3
-logMIC [13]: 0.7
Ratio [14]: 3
Ratio [15]: 3
